Where “and” joins values, the source holds several entries; their conditions need not be identical. Identical values can stand only once. Inconclusive results and toxic doses are left out.
Tested on: L1210 leukemia ip in BDF1 mice, survival T/C
Test: NCI In Vivo Anticancer Drug Screen. Data for tumor model L1210 Leukemia (intraperitoneal) in B6D2F1 (BDF1) mice
Conditions: higher = longer survival
Outline: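 Mice bearing the transplanted tumor received compound or vehicle. Survival of the treated group was divided by that of the vehicle-treated control group to give the ratio.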

## Nc1nc2n[nH]nc2c(=O)[nH]1
endpoint: mean survival time, dose: 1.25 mg/kg/injection, schedule: Q01DX015 (ip), vehicle: clinical formulation
  T/C: 109 % of control
endpoint: mean survival time, dose: 1.4 mg/kg/injection, schedule: Q01DX Z (ip), vehicle: carboxymethylcellulose (CMC)
  T/C: 109 % of control
endpoint: mean survival time, dose: 2.5 mg/kg/injection, schedule: Q01DX015 (ip), vehicle: clinical formulation
  T/C: 107 % of control
endpoint: mean survival time, dose: 2.8 mg/kg/injection, schedule: Q01DX Z (ip), vehicle: carboxymethylcellulose (CMC)
  T/C: 109 % of control
endpoint: mean survival time, dose: 3.13 mg/kg/injection, schedule: Q01DX010 (ip), vehicle: alkali diluted with saline
  T/C: 108 % of control and 110 % of control
endpoint: mean survival time, dose: 5.0 mg/kg/injection, schedule: Q01DX015 (ip), vehicle: clinical formulation
  T/C: 107 % of control
endpoint: mean survival time, dose: 5.0 mg/kg/injection, schedule: Q01DX Z (oral), vehicle: carboxymethylcellulose (CMC)
  T/C: 115 % of control
endpoint: mean survival time, dose: 5.59 mg/kg/injection, schedule: Q01DX Z (ip), vehicle: carboxymethylcellulose (CMC)
  T/C: 118 % of control
endpoint: mean survival time, dose: 6.25 mg/kg/injection, schedule: Q01DX010 (ip), vehicle: alkali diluted with saline
  T/C: 122 % of control and 123 % of control
endpoint: mean survival time, dose: 7.5 mg/kg/injection, schedule: Q01DX Z (sc), vehicle: carboxymethylcellulose (CMC)
  T/C: 112 % of control
endpoint: mean survival time, dose: 10.0 mg/kg/injection, schedule: Q01DX015 (ip), vehicle: clinical formulation
  T/C: 117 % of control
endpoint: mean survival time, dose: 10.0 mg/kg/injection, schedule: Q01DX Z (oral), vehicle: carboxymethylcellulose (CMC)
  T/C: 103 % of control
endpoint: mean survival time, dose: 12.5 mg/kg/injection, schedule: Q01DX006 (iv), vehicle: water
  T/C: 104 % of control
endpoint: mean survival time, dose: 12.5 mg/kg/injection, schedule: Q01DX Z (im), vehicle: water
  T/C: 121 % of control
endpoint: mean survival time, dose: 12.5 mg/kg/injection, schedule: Q01DX Z (ip), vehicle: other
  T/C: 97 % of control
endpoint: mean survival time, dose: 15.0 mg/kg/injection, schedule: Q01DX Z (sc), vehicle: carboxymethylcellulose (CMC)
  T/C: 106 % of control
endpoint: mean survival time, dose: 20.0 mg/kg/injection, schedule: Q01DX015 (ip), vehicle: water
  T/C: 101 % of control
endpoint: mean survival time, dose: 20.0 mg/kg/injection, schedule: Q01DX Z (oral), vehicle: carboxymethylcellulose (CMC)
  T/C: 95 % of control
endpoint: mean survival time, dose: 22.35 mg/kg/injection, schedule: Q01DX Z (ip), vehicle: carboxymethylcellulose (CMC)
  T/C: 152 % of control
endpoint: mean survival time, dose: 25.0 mg/kg/injection, schedule: Q01DX005 (ip), vehicle: other
  T/C: 111 % of control
endpoint: mean survival time, dose: 25.0 mg/kg/injection, schedule: Q01DX006 (iv), vehicle: water
  T/C: 113 % of control
endpoint: mean survival time, dose: 25.0 mg/kg/injection, schedule: Q01DX009 (ip), vehicle: saline
  T/C: 154 % of control and 160 % of control
endpoint: mean survival time, dose: 25.0 mg/kg/injection, schedule: Q01DX009 (sc), vehicle: carboxymethylcellulose (CMC)
  T/C: 104 % of control
endpoint: mean survival time, dose: 25.0 mg/kg/injection, schedule: Q01DX Z (ip), vehicle: other
  T/C: 106 % of control
endpoint: mean survival time, dose: 30.0 mg/kg/injection, schedule: Q01DX Z (ip), vehicle: other
  T/C: 121 % of control
endpoint: mean survival time, dose: 40.0 mg/kg/injection, schedule: Q01DX009 (ip), vehicle: other
  T/C: 159 % of control
endpoint: mean survival time, dose: 40.0 mg/kg/injection, schedule: Q01DX Z (oral), vehicle: carboxymethylcellulose (CMC)
  T/C: 109 % of control
endpoint: mean survival time, dose: 44.0 mg/kg/injection, schedule: Q01DX015 (ip), vehicle: water
  T/C: 98 % of control and 115 % of control
endpoint: mean survival time, dose: 50.0 mg/kg/injection, schedule: Q01DX001 (ip), vehicle: steriod suspending solution
  T/C: 117 % of control
endpoint: mean survival time, dose: 50.0 mg/kg/injection, schedule: Q01DX005 (ip), vehicle: other
  T/C: 122 % of control
endpoint: mean survival time, dose: 50.0 mg/kg/injection, schedule: Q01DX009 (ip), vehicle: carboxymethylcellulose (CMC)
  T/C: 159 % of control
endpoint: mean survival time, dose: 50.0 mg/kg/injection, schedule: Q01DX009 (ip), vehicle: other
  T/C: 155 % of control
endpoint: mean survival time, dose: 50.0 mg/kg/injection, schedule: Q01DX009 (ip), vehicle: saline
  T/C: 156 % of control and 158 % of control
endpoint: mean survival time, dose: 50.0 mg/kg/injection, schedule: Q01DX Z (im), vehicle: water
  T/C: 160 % of control
endpoint: mean survival time, dose: 50.0 mg/kg/injection, schedule: Q01DX Z (oral), vehicle: other
  T/C: 93 % of control
endpoint: mean survival time, dose: 50.0 mg/kg/injection, schedule: Q01DX Z (oral), vehicle: water
  T/C: 98 % of control
endpoint: mean survival time, dose: 50.0 mg/kg/injection, schedule: Q01DX Z (sc), vehicle: water
  T/C: 154 % of control
endpoint: mean survival time, dose: 60.0 mg/kg/injection, schedule: Q01DX009 (ip), vehicle: other
  T/C: 152 % of control
endpoint: mean survival time, dose: 61.0 mg/kg/injection, schedule: Q01DX015 (ip), vehicle: water
  T/C: 156 % of control
endpoint: mean survival time, dose: 62.0 mg/kg/injection, schedule: Q01DX001 (ip), vehicle: carboxymethylcellulose (CMC)
  T/C: 121 % of control
endpoint: mean survival time, dose: 62.0 mg/kg/injection, schedule: Q01DX001 (sc), vehicle: carboxymethylcellulose (CMC)
  T/C: 106 % of control
endpoint: mean survival time, dose: 64.0 mg/kg/injection, schedule: Q## X024 (ip), vehicle: other
  T/C: 150 % of control
endpoint: mean survival time, dose: 75.0 mg/kg/injection, schedule: Q01DX009 (ip), vehicle: other
  T/C: 156 % of control
endpoint: mean survival time, dose: 75.0 mg/kg/injection, schedule: Q02DX005 (ip), vehicle: carboxymethylcellulose (CMC)
  T/C: 159 % of control
endpoint: mean survival time, dose: 87.0 mg/kg/injection, schedule: Q01DX001 (ip), vehicle: water
  T/C: 115 % of control and 122 % of control
endpoint: mean survival time, dose: 87.0 mg/kg/injection, schedule: Q07DX Z (ip), vehicle: water
  T/C: 121 % of control
endpoint: mean survival time, dose: 89.4 mg/kg/injection, schedule: Q01DX Z (ip), vehicle: carboxymethylcellulose (CMC)
  T/C: 154 % of control
endpoint: mean survival time, dose: 90.0 mg/kg/injection, schedule: Q01DX009 (ip), vehicle: other
  T/C: 150 % of control
endpoint: mean survival time, dose: 90.0 mg/kg/injection, schedule: Q01DX015 (ip), vehicle: carboxymethylcellulose (CMC)
  T/C: 155 % of control
endpoint: mean survival time, dose: 90.0 mg/kg/injection, schedule: Q## X015 (ip), vehicle: carboxymethylcellulose (CMC)
  T/C: 155 % of control
endpoint: mean survival time, dose: 100.0 mg/kg/injection, schedule: Q01DX001 (ip), vehicle: steriod suspending solution
  T/C: 118 % of control
endpoint: mean survival time, dose: 100.0 mg/kg/injection, schedule: Q01DX009 (ip), vehicle: other
  T/C: 152 % of control
endpoint: mean survival time, dose: 100.0 mg/kg/injection, schedule: Q01DX009 (ip), vehicle: water
  T/C: 154 % of control
endpoint: mean survival time, dose: 100.0 mg/kg/injection, schedule: Q01DX Z (im), vehicle: water
  T/C: 160 % of control
endpoint: mean survival time, dose: 100.0 mg/kg/injection, schedule: Q#A X Z (ip), vehicle: carboxymethylcellulose (CMC)
  T/C: 115 % of control
endpoint: mean survival time, dose: 111.75 mg/kg/injection, schedule: Q01DX Z (ip), vehicle: carboxymethylcellulose (CMC)
  T/C: 160 % of control
endpoint: mean survival time, dose: 125.0 mg/kg/injection, schedule: Q01DX001 (sc), vehicle: carboxymethylcellulose (CMC)
  T/C: 109 % of control
endpoint: mean survival time, dose: 125.0 mg/kg/injection, schedule: Q## X003 (ip), vehicle: carboxymethylcellulose (CMC)
  T/C: 152 % of control and 155 % of control
endpoint: mean survival time, dose: 135.0 mg/kg/injection, schedule: Q01DX015 (ip), vehicle: carboxymethylcellulose (CMC)
  T/C: 152 % of control
endpoint: mean survival time, dose: 135.0 mg/kg/injection, schedule: Q## X015 (ip), vehicle: carboxymethylcellulose (CMC)
  T/C: 152 % of control
endpoint: mean survival time, dose: 150.0 mg/kg/injection, schedule: Q01DX009 (sc), vehicle: carboxymethylcellulose (CMC)
  T/C: 150 % of control
endpoint: mean survival time, dose: 150.0 mg/kg/injection, schedule: Q01DX Z (ip), vehicle: carboxymethylcellulose (CMC)
  T/C: 156 % of control
endpoint: mean survival time, dose: 175.0 mg/kg/injection, schedule: Q01DX001 (ip), vehicle: water
  T/C: 119 % of control and 121 % of control
endpoint: mean survival time, dose: 175.0 mg/kg/injection, schedule: Q07DX Z (ip), vehicle: water
  T/C: 116 % of control
endpoint: mean survival time, dose: 200.0 mg/kg/injection, schedule: Q01DX001 (ip), vehicle: steriod suspending solution
  T/C: 120 % of control
endpoint: mean survival time, dose: 200.0 mg/kg/injection, schedule: Q01DX009 (ip), vehicle: saline
  T/C: 102 % of control
endpoint: mean survival time, dose: 200.0 mg/kg/injection, schedule: Q01DX009 (ip), vehicle: water
  T/C: 152 % of control and 160 % of control
endpoint: mean survival time, dose: 200.0 mg/kg/injection, schedule: Q01DX Z (im), vehicle: carboxymethylcellulose (CMC)
  T/C: 103 % of control
endpoint: mean survival time, dose: 200.0 mg/kg/injection, schedule: Q01DX Z (sc), vehicle: carboxymethylcellulose (CMC)
  T/C: 124 % of control
endpoint: mean survival time, dose: 202.0 mg/kg/injection, schedule: Q01DX009 (ip), vehicle: other
  T/C: 98 % of control
endpoint: mean survival time, dose: 202.5 mg/kg/injection, schedule: Q01DX015 (ip), vehicle: carboxymethylcellulose (CMC)
  T/C: 97 % of control
endpoint: mean survival time, dose: 202.5 mg/kg/injection, schedule: Q## X015 (ip), vehicle: carboxymethylcellulose (CMC)
  T/C: 97 % of control
endpoint: mean survival time, dose: 223.5 mg/kg/injection, schedule: Q01DX Z (ip), vehicle: carboxymethylcellulose (CMC)
  T/C: 107 % of control
endpoint: mean survival time, dose: 225.0 mg/kg/injection, schedule: Q01DX015 (ip), vehicle: clinical formulation
  T/C: 156 % of control
endpoint: mean survival time, dose: 250.0 mg/kg/injection, schedule: Q01DX001 (sc), vehicle: carboxymethylcellulose (CMC)
  T/C: 113 % of control
endpoint: mean survival time, dose: 250.0 mg/kg/injection, schedule: Q06DX003 (ip), vehicle: carboxymethylcellulose (CMC)
  T/C: 151 % of control
endpoint: mean survival time, dose: 250.0 mg/kg/injection, schedule: Q## X003 (ip), vehicle: carboxymethylcellulose (CMC)
  T/C: 155 % of control
endpoint: mean survival time, dose: 300.0 mg/kg/injection, schedule: Q01DX009 (ip), vehicle: other
  T/C: 119 % of control
endpoint: mean survival time, dose: 300.0 mg/kg/injection, schedule: Q01DX009 (sc), vehicle: carboxymethylcellulose (CMC)
  T/C: 151 % of control
endpoint: mean survival time, dose: 300.0 mg/kg/injection, schedule: Q03DX Z (ip), vehicle: water
  T/C: 121 % of control
endpoint: mean survival time, dose: 350.0 mg/kg/injection, schedule: Q01DX001 (ip), vehicle: water
  T/C: 116 % of control and 121 % of control
endpoint: mean survival time, dose: 350.0 mg/kg/injection, schedule: Q07DX Z (ip), vehicle: water
  T/C: 109 % of control
endpoint: mean survival time, dose: 400.0 mg/kg/injection, schedule: Q01DX Z (sc), vehicle: carboxymethylcellulose (CMC)
  T/C: 100 % of control
endpoint: mean survival time, dose: 500.0 mg/kg/injection, schedule: Q01DX001 (ip), vehicle: carboxymethylcellulose (CMC)
  T/C: 150 % of control
endpoint: mean survival time, dose: 500.0 mg/kg/injection, schedule: Q## X003 (ip), vehicle: carboxymethylcellulose (CMC)
  T/C: 95 % of control
endpoint: mean survival time, dose: 700.0 mg/kg/injection, schedule: Q01DX001 (ip), vehicle: water
  T/C: 97 % of control
endpoint: mean survival time, dose: 750.0 mg/kg/injection, schedule: Q10DX003 (ip), vehicle: carboxymethylcellulose (CMC)
  T/C: 157 % of control
endpoint: median survival time, dose: 12.5 mg/kg/injection, schedule: Q01DX009 (ip), vehicle: other
  T/C: 122 % of control
endpoint: median survival time, dose: 25.0 mg/kg/injection, schedule: Q01DX009 (ip), vehicle: other
  T/C: 122 % of control
endpoint: median survival time, dose: 200.0 mg/kg/injection, schedule: Q01DX009 (ip), vehicle: other
  T/C: 150 % of control

From PubChem BioAssay AID248 (DTP/NCI, 2004)
